Source: patent US20240343704A1, “HALO-SUBSTITUTED AMINO PYRIDINE COMPOUNDS AS INHIBITORS OF THE HAEMATOPOIETIC PROGENITOR KINASE 1 (HPK1)” (priority 2021, published 2024)

Each molecule was assayed against T1, Recombinant (1-346) HPK1 (h) (Homo sapiens, UniProt Q92918) (assay: HPK1 Human STE Kinase Enzymatic Radiometric Assay). Details: read-out: HPK1 IC50 nM Range*.
T1 construct: Recombinant (1-346) HPK1 (h) is incubated with 8 mM MOPS pH 7.0
T1 sequence (Q92918 1-346): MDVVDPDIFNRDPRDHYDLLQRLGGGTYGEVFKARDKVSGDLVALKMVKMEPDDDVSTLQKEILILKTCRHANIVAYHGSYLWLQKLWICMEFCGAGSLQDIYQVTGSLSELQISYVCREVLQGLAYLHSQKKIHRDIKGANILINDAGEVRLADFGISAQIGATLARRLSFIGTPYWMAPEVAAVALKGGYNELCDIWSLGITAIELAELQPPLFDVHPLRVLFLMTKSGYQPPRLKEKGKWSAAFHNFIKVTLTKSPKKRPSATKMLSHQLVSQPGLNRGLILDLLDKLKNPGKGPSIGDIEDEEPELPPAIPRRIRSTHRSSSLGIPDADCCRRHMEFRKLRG
Type: biochemical
Procedure: A stock solution of 10 mM of test compound is prepared in DMSO. The compound plate was prepared by 3-fold and 9-point serial dilutions. […] The reaction is initiated by The addition of the Mg/ATP mix. After incubation for 40 minutes at RT, the reaction is stopped by the addition of phosphoric acid to a concentration of 0.5%.

Compound	IC50 [nM]
Cc1cc2cc(-c3cc(-c4ccc(N5CCOCC5)c(CN(C)C)c4)c(F)nc3N)cc(F)c2c(=O)[nH]1 [I-505, 6-(2-amino-5-(3-((dimethylamino)methyl)-4-morpholinophenyl)-6-fluoropyridin-3-yl)-8-fluoro-3-methylisoquinolin-1(2H)-one]	11 to 100
CN(C)Cc1cc(-c2cc(-c3ccc4c(c3)CCNC4=O)c(N)nc2F)ccc1OCC1CC1 [I-506, 6-(2-amino-5-(4-(cyclopropylmethoxy)-3-((dimethylamino)methyl)phenyl)-6-fluoropyridin-3-yl)-3,4-dihydroisoquinolin-1(2H)-one]	11 to 100
CN(C)Cc1cc(-c2cc(-c3cc4c(cc3F)C(=O)NCC4)c(N)nc2F)ccc1OCC1CC1 [I-507, 6-(2-amino-5-(4-(cyclopropylmethoxy)-3-((dimethylamino)methyl)phenyl)-6-fluoropyridin-3-yl)-7-fluoro-3,4-dihydroisoquinolin-1(2H)-one]	11 to 100
COC1CCN(Cc2cc(-c3cc(-c4ccc5c(c4)CCNC5=O)c(N)nc3F)ccc2OCC2CC2)CC1 [I-508, 6-(2-amino-5-(4-(cyclopropylmethoxy)-3-((4-methoxypiperidin-1-yl)methyl)phenyl)-6-fluoropyridin-3-yl)-3,4-dihydroisoquinolin-1(2H)-one]	11 to 100
COC1CCN(Cc2cc(-c3cc(-c4cc5c(cc4F)C(=O)NCC5)c(N)nc3F)ccc2OCC2CC2)CC1 [I-509, 6-(2-amino-5-(4-(cyclopropylmethoxy)-3-((4-methoxypiperidin-1-yl)methyl)phenyl)-6-fluoropyridin-3-yl)-7-fluoro-3,4-dihydroisoquinolin-1(2H)-one]	11 to 100
COC1CCN(Cc2cc(-c3cc(-c4ccc5c(c4)CCNC5=O)c(N)nc3F)ccc2N2CCOCC2)CC1 [I-510, 6-(2-amino-6-fluoro-5-(3-((4-methoxypiperidin-1-yl)methyl)-4-morpholinophenyl)pyridin-3-yl)-3,4-dihydroisoquinolin-1(2H)-one]	11 to 100
COC1CCN(Cc2cc(-c3cc(-c4cc5c(cc4F)C(=O)NCC5)c(N)nc3F)ccc2N2CCOCC2)CC1 [I-511, 6-(2-amino-6-fluoro-5-(3-((4-methoxypiperidin-1-yl)methyl)-4-morpholinophenyl)pyridin-3-yl)-7-fluoro-3,4-dihydroisoquinolin-1(2H)-one]	11 to 100
COC1CCN(Cc2cc(-c3cc(-c4ccc5c(c4)CCNC5=O)c(N)nc3F)ccc2N2CCSCC2)CC1 [I-512, 6-(2-amino-6-fluoro-5-(3-((4-methoxypiperidin-1-yl)methyl)-4-thiomorpholinophenyl)pyridin-3-yl)-3,4-dihydroisoquinolin-1(2H)-one]	11 to 100
COC1CCN(Cc2cc(-c3cc(-c4cc5c(cc4F)C(=O)NCC5)c(N)nc3F)ccc2N2CCSCC2)CC1 [I-513, 6-(2-amino-6-fluoro-5-(3-((4-methoxypiperidin-1-yl)methyl)-4-thiomorpholinophenyl)pyridin-3-yl)-7-fluoro-3,4-dihydroisoquinolin-1(2H)-one]	11 to 100
Nc1nc(F)c(-c2ccc(C3=CCOCC3)cc2C=O)cc1-c1cc2c(cc1F)C(=O)NCC2 [I-514, 2-(6-amino-2-fluoro-5-(7-fluoro-1-oxo-1,2,3,4-tetrahydroisoquinolin-6-yl)pyridin-3-yl)-5-(3,6-dihydro-2H-pyran-4-yl)benzaldehyde]	101 to 1000
Cc1[nH]c(=O)c2ccc(-c3cc(-c4ccc(N5CCOCC5)c(CN(C)C)c4)c(F)nc3N)cc2c1F [I-515, 6-(2-amino-5-(3-((dimethylamino)methyl)-4-morpholinophenyl)-6-fluoropyridin-3-yl)-4-fluoro-3-methylisoquinolin-1(2H)-one]	11 to 100
COc1ccc(-c2cc(-c3ccc4c(c3)CCNC4=O)c(N)nc2F)cc1CN1CC(OC)C1 [I-516, 6-(2-amino-6-fluoro-5-(4-methoxy-3-((3-methoxyazetidin-1-yl)methyl)phenyl)pyridin-3-yl)-3,4-dihydroisoquinolin-1(2H)-one]	11 to 100
COc1ccc(-c2cc(-c3cc4c(cc3F)C(=O)NCC4)c(N)nc2F)cc1CN1CC(OC)C1 [I-517, 6-(2-amino-6-fluoro-5-(4-methoxy-3-((3-methoxyazetidin-1-yl)methyl)phenyl)pyridin-3-yl)-7-fluoro-3,4-dihydroisoquinolin-1(2H)-one]	11 to 100
COc1ccc(-c2cc(-c3ccc4c(c3)CCNC4=O)c(N)nc2F)cc1CN1CCC(OC)CC1 [I-518, 6-(2-amino-6-fluoro-5-(4-methoxy-3-((4-methoxypiperidin-1-yl)methyl)phenyl)pyridin-3-yl)-3,4-dihydroisoquinolin-1(2H)-one]	11 to 100
COc1ccc(-c2cc(-c3cc4c(cc3F)C(=O)NCC4)c(N)nc2F)cc1CN1CCC(OC)CC1 [I-519, 6-(2-amino-6-fluoro-5-(4-methoxy-3-((4-methoxypiperidin-1-yl)methyl)phenyl)pyridin-3-yl)-7-fluoro-3,4-dihydroisoquinolin-1(2H)-one]	11 to 100
Nc1nc(F)c(-c2ccc([C@]34C[C@H]3CN(C3CCC3)C4)cc2)cc1-c1ccc2c(=O)[nH]cc(F)c2c1 [I-520, 6-(2-amino-5-(4-((1S,5R)-3-cyclobutyl-3-azabicyclo[3.1.0]hexan-1-yl)phenyl)-6-fluoropyridin-3-yl)-4-fluoroisoquinolin-1(2H)-one]	0.1 to 10
Cc1[nH]c(=O)c2ccc(-c3cc(-c4ccc(C5CCOCC5)c(CN(C)C)c4)c(F)nc3N)cc2c1F [I-521, 6-(2-amino-5-(3-((dimethylamino)methyl)-4-(tetrahydro-2H-pyran-4-yl)phenyl)-6-fluoropyridin-3-yl)-4-fluoro-3-methylisoquinolin-1(2H)-one]	11 to 100
COC1CN(Cc2cc(-c3cc(-c4ccc5c(c4)CCNC5=O)c(N)nc3F)ccc2N2CCOCC2)C1 [I-522, 6-(2-amino-6-fluoro-5-(3-((3-methoxyazetidin-1-yl)methyl)-4-morpholinophenyl)pyridin-3-yl)-3,4-dihydroisoquinolin-1(2H)-one]	11 to 100
COC1CN(Cc2cc(-c3cc(-c4cc5c(cc4F)C(=O)NCC5)c(N)nc3F)ccc2N2CCOCC2)C1 [I-523, 6-(2-amino-6-fluoro-5-(3-((3-methoxyazetidin-1-yl)methyl)-4-morpholinophenyl)pyridin-3-yl)-7-fluoro-3,4-dihydroisoquinolin-1(2H)-one]	11 to 100
CN(C)Cc1cc(-c2cc(-c3ccc4c(c3)CCNC4=O)c(N)nc2F)ccc1OCCCC(F)F [I-524, 6-(2-amino-5-(4-(4,4-difluorobutoxy)-3-((dimethylamino)methyl)phenyl)-6-uoropyridin-3-yl)-3,4-dihydroisoquinolin-1(2H)-one]	0.1 to 10
CN(C)Cc1cc(-c2cc(-c3cc4c(cc3F)C(=O)NCC4)c(N)nc2F)ccc1OCCCC(F)F [I-525, 6-(2-amino-5-(4-(4,4-difluorobutoxy)-3-((dimethylamino)methyl)phenyl)-6-fluoropyridin-3-yl)-7-fluoro-3,4-dihydroisoquinolin-1(2H)-one]	11 to 100
COC1CCN(Cc2cc(-c3cc(-c4ccc5c(c4)CCNC5=O)c(N)nc3F)ccc2OCCCC(F)F)CC1 [I-526, 6-(2-amino-5-(4-(4,4-difluorobutoxy)-3-((4-methoxypiperidin-1-yl)methyl)phenyl)-6-fluoropyridin-3-yl)-3,4-dihydroisoquinolin-1(2H)-one]	11 to 100
